Experimental data as given in US20150374784A1, “COMPOSITIONS AND METHODS FOR REDUCING GERM CELL DEATH” (Los Angeles Biomedical Research Institute at Harbor-UCLA …, priority 2014, published 2015).

How the values were obtained:
germ cells = test: HNG on CP-induced germ cell apoptosis in mice, 24 hours (Example 6); type: in vivo, mouse; conditions: CP 200 mg/kg/BW IP, HNG 5 mg/kg/BW IP
Method: To examine the protective effects of HNG on germ cells, adult mice were treated with vehicle (control); HNG (5 mg/kg/BW, intraperitoneal injection IP); CP (200 mg/kg/BW, IP); and CP+HNG for 24 hours.

IGF-1 = test: Plasma IGF-1 levels by ELISA after multiple doses of CP; type: in vivo, mouse; conditions: 28 days; HNG 10 mg/kg BW daily subcutaneously; CP 150 mg/kg BW IP, 6 doses
Method: (§1) The objective of this study was to investigate whether HNG has protective effect on sperm output after multiple doses of CP in mice. Thirty adult male mice (C57BL/6J) were randomized into 4 groups: 1) 5 as control; 2) 5 received daily subcutaneously injection of HNG (10 mg/kg BW); 3) 10 were given 6 doses of CP (150 mg/kg BW) intraperitoneally at 5-day intervals; 4) 10 received both HNG and CP. All mice were killed at 28 days. Plasma HNG and IGF-1 levels were measured by ELISAs. The cauda epididymal sperm count was performed using a hemocytometer.

sperm = test: Cauda epididymal sperm count after multiple doses of CP in mice; type: in vivo, mouse; conditions: 28 days; HNG 10 mg/kg BW daily subcutaneously; CP 150 mg/kg BW IP, 6 doses at 5-day intervals
Method: as §1

[1] = tested on: germ cells in seminiferous tubules; test: Germ cell apoptosis in mouse seminiferous tubule cultures ex vivo (TUNEL); type: cell-based
Method: A total of 15 young adult (12-13 week-old) mice were used for these ex vivo studies. The animals were sacrificed with a 5% pentobarbital (200 mg/Kg) IP injection. Testes were dissected and after removing the tunica albuginea, seminiferous tubules isolated from testes were cut into small segments under a dissecting microscope and light and dark segments were separated by dissection. Ten to twelve segments were placed (2 mm in length) in each well on a six well plate with 2 ml serum free Ham F-10 culture medium (GIBCO, Life Technologies, Thermo Fisher Scientific Corp., Carlsbad, Calif.) with the following treatments: control (Con, n=10), heat (43° C., 15 minutes, used as a positive control, n=10); HN 10 μg/mL (n=9); DOX 10 mcM (Dox10, n=10); and DOX 10 mcM+Humanin 10 μg/mL (Dox10+HN, n=10). For these experiments, n represents the total number of times the treatment was repeated using different animals. After 12 hours of incubation at 34° C. the seminiferous tubules from each treatment group were used to make “squashed” seminiferous tubule samples on a slide for TUNEL (TdT-mediated dUTP nick-end labeling) assay to detect germ cell apoptosis (Erkkila, et al., 1997; Toppari & Parvinen, 1985). To quantify the rate of germ cell apoptosis under a light microscope at 400× magnification, a square grid fitted within the eyepiece provided a reference area of 62,500 μm^2. The TUNEL positive apoptotic germ cells within the frame of grid were counted in 4 segments of seminiferous tubules in each group. The incidence of germ cell apoptosis was expressed as the number of apoptotic germ cells per mm^2.
A total of 15 mice were used for ex vivo studies. The animals were sacrificed and seminiferous tubules isolated from testes were cut into small segments under a dissecting microscope to identify light (early stages I-IV and late stages XI-XII) of the seminiferous epithelium) and dark (middle stages VII-VIII) segments. Ten to twelve light segments (2 mm in length) were placed per well on a six well plate with 2 ml serum free medium of F-10 Ham nutrient mixture (Gibco, Life Technologies, Grand Island, N.Y.) following these treatments: control (Con, n=15 where n is the number of times the treatment was repeated with segments obtained from different donor animals), heat (43° C., 15 min.; used as a positive control, n=10), HN 10 μg/mL (HN, n=9), doxorubicin 1 μM (Dox1, n=7), doxorubicin 1 μM+HN 10 μg/mL (Dox1+HN, n=7), doxorubicin 10 μM (Dox10, n=10), and doxorubicin 10 μM+HN 10 μg/mL (Dox10+HN, n=10). After 12 hours of incubation at 34° C. with 5% CO2, the seminiferous tubules from the seven treatment groups were used to make “squashed” seminiferous tubule preparations on a slide for TUNEL assay to detect germ cell apoptosis (Erkkila K, et al., 1997). To quantify the rate of germ cell apoptosis, the squashed segments of seminiferous tubules were examined with an American Optical Microscope (Scientific Instruments, Buffalo, N.Y.) with a 40×objective and a 10×eyepiece lens. A square grid fitted within the eyepiece provided a reference area of 62,500 μm^2. The TUNEL positive apoptotic germ cells within the frame of grid were counted in 4 segments of seminiferous tubules in each group. The incidence of germ cell apoptosis was expressed as the number of apoptotic germ cells per mm^2.

Leydig cells = test: Testosterone of cultured Leydig cells treated with ketoconazole; type: cell-based, rat; conditions: HN 10 mcg/ml + KTZ 10 mcg/ml, 4 hours
Method: Leydig cells were isolated based on a previously described procedure (Gao, et al., 1996; Klinefelter, et al., 1987; Salva, et al., 2001). Briefly, the testes were decapsulated, and then dissociated with collagenase, dispase, DNase and shaking for 15 min at 34° C. The seminiferous tubules were removed by filtration through 40 μm nylon mesh (BD Falcon, Franklin Lakes, N.J.). Leydig cells were then harvested after centrifugation and purified using a Percoll gradient (GE Healthcare, Uppsala, Sweden) and centrifugation (60 minutes at 20,000 g at 4° C.). Enriched Leydig cells were harvested at densities between 1.065 (red) and 1.075 (blue) g/cm^3 from the percoll gradient. These Leydig cells were washed by diluting the percoll and excluding residual germ cells and other cells using a BSA density gradient with centrifugation. The purity of the Leydig cells was >90%, as determined by histochemical staining for 3β-hydroxysteroid dehydrogenase. The cell viability, as assessed by trypan blue exclusion, was greater than 90%. […]
Testosterone concentrations in plasma, testes, and culture medium were measured by a previously described radioimmunoassay (Lue, et al., 2010) with a minimal detection limit of 0.1 ng/ml. […]

Row | Compound | germ cell apoptosis (apoptotic index) (germ cells) | plasma IGF-1 levels (IGF-1) [ng/mL] | cauda epididymal sperm count (sperm) | number of apoptotic germ cells induced by DOX ([1]; HN 10 μg/mL + DOX 10 μM, 12 hours) | apoptosis induced by low dose doxorubicin ([1]; HN 10 μg/mL + doxorubicin 1 μM, 12 hours) | germ cell apoptosis, HN treatment alone compared with control ([1]; HN 10 μg/mL, 12 hours ex vivo culture) | heat induced germ cell apoptosis ([1]; HN 10 μg/mL, heat 43° C., 15 min) | KTZ induced decrease in testosterone production by Leydig cells (Leydig cells)
1 | O=P1(N(CCCl)CCCl)NCCCO1 (centres unmarked) [CP, cyclophosphamide monohydrate] | significantly increased germ cell apoptosis in all stages of spermatogenesis | 182.4 ± 10.5 | 0.5±0.1 ×10^6/mg |  |  |  |  | 
2 | MAPRGFSCLLLLTSEIDLPVKRRA [HN, 24-amino acid mitochondrial derived peptide] |  |  |  | significantly reduced the number of apoptotic germ cells | did not significantly decrease apoptosis | had no significant effect on germ cell apoptosis | prevented the heat induced germ cell apoptosis | did not salvage the KTZ induced decrease in testosterone production
